Columns and labels:
Type in all cases: in vivo
[1] = tested on: Corn Earworm (Helicoverpa zea, HELIZE, CEW); assay: Bioassay 4: corn earworm, artificial diet, 128-cell tray; details: AI alone
Protocol: (§1) Stock solutions were prepared with F1 as well as for each of the active ingredients individually. Test solutions were prepared from the stock solutions. Test solutions were prepared containing F1, the individual active ingredients, and mixtures of F1 with each of the active ingredients. The test solution for F1 was prepared by adding 500 μL of the stock solution to a 25 mL glass vial, then adding 500 μL of a 9:1 mixture of acetone:water. The individual active ingredients were prepared by adding 500 μL of stock solution to a 25 mL glass vial, then adding 500 μL of a 9:1 mixture of acetone:water. The test solutions containing mixtures of F1, and the individual active ingredients were prepared by adding 500 μL of the active ingredient stock solution to a 25 mL glass vial, followed by 500 μL of the F1 stock solution, creating a test solution containing 0.04% (w/v) of F1 and 0.4% (w/v) of the active ingredient. Each test solution was serially diluted to create desired doses of test solutions (F1 at 0.04% (w/v), 0.004% (w/v), 0.0004% (w/v), 0.00004% (w/v), 0.000004% (w/v), and 0.0000004% (w/v) and active ingredients at 0.4% (w/v), 0.04% (w/v), 0.004% (w/v), 0.0004% (w/v), 0.00004% (w/v), and 0.000004% (w/v)).
(§2) The test solutions were tested against CEW, FAW, and SBL using the following procedure: an artificial lepidopteran diet (Multispecies Lepidopteran Diet, Southland Products) was distributed in 128-cell bioassay trays (Frontier Agricultural Sciences™). 50 μL of test solution was pipetted into a cell in the bioassay tray. (The test solution doses of 0.04% (w/v), 0.004% (w/v), 0.0004% (w/v), 0.00004% (w/v), 0.000004% (w/v), and 0.0000004% (w/v) translated to concentrations of 5, 0.5, 0.05, 0.005, 0.0005, and 0.00005 μg/cm^2 on the diet, respectively.) A reference treatment (solvent check) was treated with the diluent only. Each treatment was replicated 8 times for each species. A 2nd instar CEW, FAW, or SBL larva was placed on top of the diet in each cell and was contained with a clear perforated adhesive lid. Test trays were held at approximately 26° C. and ambient relative humidity (RH) prior to grading.
(§3) After 5 days, the number of live larvae were recorded from each cell and percent control was measured using Abbott's correction formula (W. S. Abbott, J. Econ. Entomol. 18 (1925), pp. 265-267) as follows:
(§4) where X=No. of live larvae on solvent check and Y=No. of live larvae on treated diet. In Table B4 the “Expected % Control” was calculated using the method described in Colby S. R., Weeds, 1967, 15, 20-22. Bioassay 5: Neotropical Brown Stink Bug (Euschistus heros, EUSCHE, “BSB”).

[2] = tested on: Soybean Looper (Chrysodeixis includens, PSEPIN, SBL); assay: Bioassay 4: soybean looper, artificial diet, 128-cell tray; details: AI alone
Protocol: as §1, §2, §3, §4

[3] = tested on: Fall Armyworm (Spodoptera frugiperda, LAPHFR, FAW); assay: Bioassay 4: fall armyworm, artificial diet, 128-cell tray; details: AI alone
Protocol: as §1, §2, §3, §4

[4] = tested on: Corn Earworm (Helicoverpa zea, HELIZE, CEW); assay: Bioassay 7: corn earworm, artificial diet, 96 well plate; details: AI alone at 0.4 wt %
Protocol: (§5) The test solutions were tested against CEW, FAW, BAW, and SBL using the following procedure: an artificial lepidopteran diet (Multispecies Lepidopteran Diet, Southland Products) was distributed in 96 well plate. Twenty μL of test solution was pipetted onto a cell in the bioassay plate. […] Each treatment was replicated 5 times for each species. Approximately five first instar CEW, FAW, BAW, or SBL larva were placed on top of the diet in each cell and was contained with a clear perforated adhesive lid. Test trays were held at approximately 25° C. and ambient relative humidity prior to grading. After five days, the number of cells where all the larvae were dead were recorded as 100% and averaged across all replicates; then the percent control was measured using Abbott's correction formula (W. S. Abbott, J. Econ. Entomol. 18 (1925), pp. 265-267) as follows:
(§6) where X=No. of live larvae on solvent check and Y=No. of live larvae on treated diet. In Table 7 the “Expected % Control” was calculated using the method described in Colby S. R., Weeds, 1967, 15, 20-22. Bioassay 8: Western Corn Rootworm (Diabrotica virgifera virgifera, DIABVI, “WCR”)

[5] = tested on: Soybean Looper (Chrysodeixis includens, PSEPIN, SBL); assay: Bioassay 7: soybean looper, artificial diet, 96 well plate; details: CL; AI alone at 0.4 wt %
Protocol: as §5, §6

[6] = tested on: Western Flower Thrips (Frankliniella occidentalis, FRANOC, WFT); assay: Bioassay 3: western flower thrips, cotton leaf disc dip; details: 3 days
Protocol: Stock solutions of F1 and various active ingredients were prepared initially at a concentration of 0.1 mg/mL using acetone as a diluent. Stock solutions were prepared with F1 as well as for each of the active ingredients individually. Test solutions were prepared from the stock solutions. Test solutions were prepared containing F1, the individual active ingredients, and mixtures of F1 with each of the active ingredients. The test solutions for F1 and the individual active ingredients were prepared by adding 500 μL of stock solution to a 25 mL glass vial, then adding 500 μL of acetone, followed by the addition of 9 mL water with 0.025% Tween® 20 to create a 0.0005% (w/v) solution. The test solutions containing mixtures of F1, and the individual active ingredients were prepared by adding 500 μL of the active ingredient stock solution to a 25 mL glass vial, followed by 500 μL of the F1 stock solution, then by the addition of 9 mL water with 0.025% Tween® 20 to create a test solution containing 0.0005% (w/v) F1 and 0.0005% (w/v) of the active ingredient. Each test solution was serially diluted to create desired doses of test solutions (0.0005% (w/v), 0.000125% (w/v), 0.00003125% (w/v), 0.0000078% (w/v), and 0.00000195% (w/v)).
The test solutions were tested against WFT using the following procedure: Leaf discs (2.7 cm in diameter) were cut from the true leaves of cotton plants. Leaf discs were dipped into the test solutions and shaken to ensure complete coverage of the leaf disc and then placed in Millipore® PetriSlides containing a filter paper disc. Treated leaf discs were air dried for approximately 1 hour. Each leaf disc was infested with 5 WFT (9-10-day old nymphs) by placement on each leaf disc, and the PetriSlides were capped to prevent escape. Each treatment was replicated three times and the test treatments were held at approximately 26° C. and ambient relative humidity (RH) prior to grading. Reference discs (solvent check) were treated with the diluent only. Evaluation was conducted by counting the number of live WFT under magnification 3 days after treatment. Percent control was measured using Abbott's correction formula (W. S. Abbott, J. Econ. Entomol. 18 (1925), pp. 265-267) as follows:
where X=No. of live nymphs on solvent check leaf discs and Y=No. of live nymphs on treated leaf discs. In Table B3 the “Expected % Control” was calculated using the method described in Colby S. R., Weeds, 1967, 15, 20-22. Bioassay 4: Corn Earworm (Helicoverpa zea, HELIZE, “CEW”), Fall Armyworm (Spodoptera frugiperda, LAPHFR, “FAW”), and Soybean Looper (Chrysodeixis includens, PSEPIN, “SBL”).

[7] = tested on: Beet Armyworm (Spodoptera exigua, LAPHEG, BAW); assay: Bioassay 7: beet armyworm, artificial diet, 96 well plate; details: AI alone at 0.4 wt %
Protocol: as §5, §6

Row | Compound | Average % Control AI ([1]; 0.000004 wt %) [%] | Average % Control AI ([1]; 0.00004 wt %) [%] | Average % Control AI ([2]; 0.000004 wt %) [%] | Average % Control AI ([3]; 0.000004 wt %) [%] | Average % Control AI ([3]; 0.00004 wt %) [%] | also measured
1 | CC(C(=O)Nc1cn(-c2cccnc2)nc1Cl)S(C)(=O)=O (stereo not shown) [AI-2, N-(3-chloro-1-(pyridin-3-yl)-1H-pyrazol-4-yl)-2-(methylsulfonyl)propanamide] | 0.0 | 0.0 | 0.0 | 0.0 | – | –
2 | Thiram | – | – | – | – | – | Average % Control AI [4]: 0.0%; Average % Control AI [5]: 0.0%
3 | C/C(=N\C#N)N(C)Cc1ccc(Cl)nc1 [Acetamiprid] | 0.0 | 0.0 | – | – | 0.0 | Average % Control AI ([2]; 0.00004 wt %): 0.0%
4 | FC(F)(F)c1ccc(COc2ncncc2C2OCCCO2)cc1 [Benzpyrimoxan] | 0.0 | 0.0 | 0.0 | 0.0 | – | –
5 | COc1cccc(C(=O)NN(C(=O)c2cc(C)cc(C)c2)C(C)(C)C)c1C [Methoxyfenozide] | 0.0 | 0.0 | 25.0 | 12.5 | 0.0 | Average % Control AI ([6]; AI alone at 1:1 rate to F1 3.125 (10^-6 Wt %)): 4.8%
6 | CO/C=C(/C(=O)OC)c1ccccc1Oc1cc(Oc2ccccc2C#N)ncn1 [Azoxystrobin] | – | – | – | – | – | Average % Control AI [7]: 0.0%
7 | CCOC(=O)OC1=C(c2cc(C)ccc2C)C(=O)N[C@]12CC[C@@H](OC)CC2 [Spirotetramat] | 0.0 | 0.0 | 12.5 | 0.0 | – | –
8 | CC1(C)[C@H](/C=C(\Cl)C(F)(F)F)[C@@H]1C(=O)O[C@@H](C#N)c1cccc(Oc2ccccc2)c1 [Lambda-cyhalothrin] | 0.0 | – | 12.5 | 0.0 | 0.0 | –
9 | CNC(=O)c1cc(C#N)cc(C)c1NC(=O)c1cc(Br)nn1-c1ncccc1Cl [Cyantraniliprole] | 0.0 | 0.0 | 0.0 | 0.0 | 0.0 | Average % Control AI ([6]; AI alone at 1:1 rate to F1 0.78 (10^-6 Wt %)): 0.0%; Average % Control AI ([2]; 0.00004 wt %): 0.0%
10 | N#Cc1c[nH]cc1-c1cccc2c1OC(F)(F)O2 [Fludioxonil] | – | – | – | – | – | Average % Control AI [7]: 0.0%
11 | COc1ccc(Cl)c(S(=O)(=O)NC(=O)c2cn3cc(C(F)(F)F)cc(Cl)c3n2)c1 [Fluazain dolizine] | – | – | – | – | – | Average % Control AI [7]: 0.0%
12 | Dinotefuran | 0.0 | 0.0 | – | – | – | –

Source: US20260182575A1, “MOLECULES HAVING PESTICIDAL UTILITY AND INTERMEDIATES AND PROCESSES RELATED THERETO” (CORTEVA AGRISCIENCE LLC, priority 2022, published 2026)
